“And” between values parts separate entries of the source, which are not always exact repeats. Equal entries are not always repeated. Inconclusive results and toxic doses are left out. Peptide text beside a SMILES is read from it. * marks the point of attachment. Trt = c1ccc(C(c2ccccc2)(c2ccccc2)*)cc1; Cbz = O=C(OCc1ccccc1)*
Test system: P388 leukemia ip, CD2F1 mice, survival T/C
Test: NCI In Vivo Anticancer Drug Screen. Data for tumor model P388 Leukemia (intraperitoneal) in CD2F1 (CDF1) mice
Settings: endpoint: median survival time, higher = longer survival
Method in brief: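 Mice carrying the transplanted tumor received test compound or vehicle. Survival was recorded in each group, and the value is the treated-group measurement divided by that of the vehicle-treated control group.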

[1] = dose: 50.0 mg/kg/injection, schedule: Q01DX005 (ip), vehicle: Klucel (hydroxypropylcellulose) (HPC)
[2] = dose: 100.0 mg/kg/injection, schedule: Q01DX005 (ip), vehicle: Klucel (hydroxypropylcellulose) (HPC)
[3] = dose: 200.0 mg/kg/injection, schedule: Q01DX005 (ip), vehicle: Klucel (hydroxypropylcellulose) (HPC)
[4] = dose: 12.5 mg/kg/injection, schedule: Q01DX009 (ip), vehicle: saline
[5] = dose: 25.0 mg/kg/injection, schedule: Q01DX009 (ip), vehicle: saline
[6] = dose: 100.0 mg/kg/injection, schedule: Q01DX009 (ip), vehicle: saline with Tween-80
[7] = dose: 200.0 mg/kg/injection, schedule: Q01DX009 (ip), vehicle: saline with Tween-80
[8] = dose: 60.0 mg/kg/injection, schedule: Q01DX005 (ip), vehicle: saline with Tween-80
[9] = dose: 120.0 mg/kg/injection, schedule: Q01DX005 (ip), vehicle: saline with Tween-80
[10] = dose: 240.0 mg/kg/injection, schedule: Q01DX005 (ip), vehicle: saline with Tween-80
[11] = dose: 12.5 mg/kg/injection, schedule: Q01DX009 (ip), vehicle: saline with Tween-80
[12] = dose: 25.0 mg/kg/injection, schedule: Q01DX009 (ip), vehicle: saline with Tween-80
[13] = dose: 50.0 mg/kg/injection, schedule: Q01DX009 (ip), vehicle: saline with Tween-80
[14] = dose: 60.0 mg/kg/injection, schedule: Q01DX005 (ip), vehicle: Klucel (hydroxypropylcellulose) (HPC)
[15] = dose: 120.0 mg/kg/injection, schedule: Q01DX005 (ip), vehicle: Klucel (hydroxypropylcellulose) (HPC)
[16] = dose: 240.0 mg/kg/injection, schedule: Q01DX005 (ip), vehicle: Klucel (hydroxypropylcellulose) (HPC)
[17] = dose: 50.0 mg/kg/injection, schedule: Q01DX009 (ip), vehicle: saline
[18] = dose: 12.5 mg/kg/injection, schedule: Q01DX009 (ip), vehicle: distilled water + Tween-80
[19] = dose: 25.0 mg/kg/injection, schedule: Q01DX009 (ip), vehicle: distilled water + Tween-80
[20] = dose: 50.0 mg/kg/injection, schedule: Q01DX009 (ip), vehicle: distilled water + Tween-80
[21] = dose: 25.0 mg/kg/injection, schedule: Q01DX009 (ip), vehicle: Klucel (hydroxypropylcellulose) (HPC)

For `O=[N+]([O-])c1cccc(-c2ccccc2)c1Br`, the T/C (dose: 37.5 mg/kg/injection, schedule: Q04DX003 (ip), vehicle: saline with Tween-80) was 100 % of control, the T/C (dose: 75.0 mg/kg/injection, schedule: Q04DX003 (ip), vehicle: saline with Tween-80) was 100 % of control and the T/C (dose: 150.0 mg/kg/injection, schedule: Q04DX003 (ip), vehicle: saline with Tween-80) was 100 % of control.
`O=[N+]([O-])c1ccc(-c2nnn(Cc3ccco3)c2N2CCCCC2)cc1` was tested, and the T/C [1] was 105 % of control, the T/C [2] was 105 % of control and the T/C [3] was 107 % of control.
For `O=P(Oc1cccc2ccccc12)(N1CC1)N1CC1`, the T/C (dose: 6.25 mg/kg/injection, schedule: Q01DX009 (ip), vehicle: saline) was 90 % of control, the T/C [4] was 95 % of control and the T/C [5] was 100 % of control. The T/C [6] was 177 % of control and the T/C [7] was 95 % of control.
In the case of `Cn1c2ccc(Cl)cc2c2c3ncncc3ccc21`, the T/C (dose: 50.0 mg/kg/injection, schedule: Q01DX001 (ip), vehicle: Klucel (hydroxypropylcellulose) (HPC)) is reported as 96 % of control, the T/C (dose: 100.0 mg/kg/injection, schedule: Q01DX001 (ip), vehicle: Klucel (hydroxypropylcellulose) (HPC)) is reported as 89 % of control and the T/C (dose: 200.0 mg/kg/injection, schedule: Q01DX001 (ip), vehicle: Klucel (hydroxypropylcellulose) (HPC)) is reported as 91 % of control.
For `CN1CCCC(Cc2ccccc2)S1(=O)=O` (stereo not given), the T/C (dose: 100.0 mg/kg/injection, schedule: Q01DX001 (ip), vehicle: saline with Tween-80) was 98 % of control, the T/C (dose: 200.0 mg/kg/injection, schedule: Q01DX001 (ip), vehicle: saline with Tween-80) was 99 % of control and the T/C (dose: 400.0 mg/kg/injection, schedule: Q01DX001 (ip), vehicle: saline with Tween-80) was 98 % of control.
With `Nc1nnc(CCC(=O)Nc2ccccc2Cl)o1` the T/C [8] was 98 % of control, the T/C [9] was 101 % of control and the T/C [10] was 97 % of control.
In the case of `CCCN=Cc1cc(Cc2ccc(O)c(C=NCCC)c2)ccc1O`, the T/C (dose: 50.0 mg/kg/injection, schedule: Q04DX003 (ip), vehicle: Klucel (hydroxypropylcellulose) (HPC)) is reported as 123 % of control and the T/C (dose: 100.0 mg/kg/injection, schedule: Q04DX003 (ip), vehicle: Klucel (hydroxypropylcellulose) (HPC)) is reported as 104 % of control and 119 % of control.
With `CNC(=O)OCc1c(COC(=O)NC)c(C)n(-c2ccc(Cl)cc2)c1C` the T/C [4] was 160 % of control and the T/C [5] was 166 % of control.
For `CCCCCCCCCCCCCCCC[N+]1([O-])CCOCC1`, the T/C [11] was 105 % of control, the T/C [12] was 102 % of control and the T/C [13] was 102 % of control.
In the case of `Nc1nc(N)c2c(n1)NCN(OCCOc1ccc(Cl)cc1Cl)C2`, the T/C [8] is reported as 105 % of control and the T/C [9] is reported as 90 % of control.
`Clc1ccc(Nc2c3ccccc3nc3c2cnn3-c2ccccc2)cc1` was tested, and the T/C [14] was 89 % of control, the T/C [15] was 99 % of control and 93 % of control and the T/C [16] was 100 % of control and 90 % of control.
For `COc1cc(Br)c(C(=O)N2CCc3ccccc32)cc1OC`, the T/C (dose: 12.5 mg/kg/injection, schedule: Q01DX009 (ip), vehicle: other) was 93 % of control and the T/C (dose: 25.0 mg/kg/injection, schedule: Q01DX009 (ip), vehicle: other) was 90 % of control.
`Cc1ccc(N2C(=O)C(C)SC2=S)cc1Cl` (stereo not given) was tested, and the T/C [4] was 100 % of control, the T/C [5] was 100 % of control and the T/C [17] was 101 % of control and 103 % of control. For the same compound, the T/C (dose: 200.0 mg/kg/injection, schedule: Q01DX009 (ip), vehicle: saline) was 91 % of control.
With `O=C(NC(CO)C(=O)OCc1ccccc1)OCCc1ccccn1` (stereo not given) the T/C [14] was 100 % of control, the T/C [15] was 96 % of control and the T/C [16] was 96 % of control.
In the case of `Cc1ccc(S(=O)(=O)N2CCCC2C(=O)NNC(N)=S)cc1` (stereo not given), the T/C [1] is reported as 99 % of control, the T/C [2] is reported as 89 % of control and the T/C [3] is reported as 91 % of control.
`CCOC(=O)c1ccc[nH]1` was tested, and the T/C [12] was 104 % of control, the T/C [13] was 108 % of control and the T/C [6] was 112 % of control. The T/C [7] was 103 % of control.
With `Fc1ccc(C=NC23CC4CC(CC(C4)C2)C3)cc1` the T/C [13] was 93 % of control, the T/C [6] was 91 % of control and the T/C [7] was 97 % of control.
`CCN(CC)CC.CCOc1ccc(NC(=O)N=C=[N-])cc1.[CH-]1CCCCC1.[CH-]1CCCCC1.[CH-]1CCCCC1.[Cl-].[Sn+4]` was tested, and the T/C (dose: 6.0 mg/kg/injection, schedule: Q01DX005 (ip), vehicle: Klucel (hydroxypropylcellulose) (HPC)) was 101 % of control and the T/C (dose: 12.0 mg/kg/injection, schedule: Q01DX005 (ip), vehicle: Klucel (hydroxypropylcellulose) (HPC)) was 89 % of control.
In the case of `O=C1C(Br)=C(c2ccccc2)S(=O)(=O)c2ccccc21`, the T/C [14] is reported as 109 % of control, the T/C [15] is reported as 114 % of control and the T/C [16] is reported as 114 % of control.
For `O=C(CBr)c1ccc(F)cc1`, the T/C [11] was 113 % of control, the T/C (dose: 25.0 mg/kg/injection, schedule: Q04DX003 (ip), vehicle: saline with Tween-80) was 104 % of control and the T/C (dose: 50.0 mg/kg/injection, schedule: Q04DX003 (ip), vehicle: saline with Tween-80) was 100 % of control.
`CC([CH2][Sn]([CH3])([Cl])[c]1ccccc1)c1ccccc1` (stereo not given) was tested, and the T/C (dose: 12.5 mg/kg/injection, schedule: Q04DX003 (ip), vehicle: saline) was 98 % of control, the T/C (dose: 25.0 mg/kg/injection, schedule: Q04DX003 (ip), vehicle: saline) was 103 % of control and the T/C (dose: 50.0 mg/kg/injection, schedule: Q04DX003 (ip), vehicle: saline) was 94 % of control. The T/C (dose: 100.0 mg/kg/injection, schedule: Q04DX003 (ip), vehicle: saline with Tween-80) was 98 % of control.
`CCC[CH2][Sn]1([CH2]CCC)[O]CC[S]1` was tested, and the T/C (dose: 3.12 mg/kg/injection, schedule: Q01DX009 (ip), vehicle: Klucel (hydroxypropylcellulose) (HPC)) was 116 % of control.
`COC(=O)C(CSC(c1ccccc1)(c1ccccc1)c1ccccc1)NC(=O)C(CC(N)=O)NC(=O)OCc1ccccc1` (stereo not drawn) (Cbz-Asn-Cys(Trt)-OMe; configuration not given here) was tested, and the T/C [18] was 92 % of control, the T/C [19] was 97 % of control and the T/C [20] was 122 % of control and 94 % of control. For the same compound, the T/C (dose: 200.0 mg/kg/injection, schedule: Q01DX009 (ip), vehicle: distilled water + Tween-80) was 163 % of control.
In the case of `CCC1(C)COC(=O)C1=C(C(=O)OC)C(=O)OC` (stereo not given), the T/C (dose: 100.0 mg/kg/injection, schedule: Q04DX003 (ip), vehicle: saline) is reported as 112 % of control, the T/C (dose: 200.0 mg/kg/injection, schedule: Q04DX003 (ip), vehicle: saline) is reported as 113 % of control and the T/C (dose: 400.0 mg/kg/injection, schedule: Q04DX003 (ip), vehicle: saline) is reported as 105 % of control.
For `CCN=NNc1ccc(C(C)=O)cc1`, the T/C [18] was 95 % of control, the T/C [19] was 109 % of control and 90 % of control and the T/C [20] was 109 % of control and 92 % of control. For the same compound, the T/C (dose: 100.0 mg/kg/injection, schedule: Q01DX009 (ip), vehicle: distilled water + Tween-80) was 104 % of control.
`CN1NC(c2ccccc2)=NN=C1c1ccccc1` was tested, and the T/C [8] was 104 % of control, the T/C [9] was 102 % of control and the T/C [10] was 105 % of control.
With `CC(F)C(N)C(=O)O` (stereo not given) the T/C (dose: 6.25 mg/kg/injection, schedule: Q01DX009 (ip), vehicle: Klucel (hydroxypropylcellulose) (HPC)) was 108 % of control and 117 % of control, the T/C (dose: 12.5 mg/kg/injection, schedule: Q01DX009 (ip), vehicle: Klucel (hydroxypropylcellulose) (HPC)) was 110 % of control and 118 % of control and the T/C [21] was 116 % of control. The T/C [17] was 106 % of control and the T/C (dose: 100.0 mg/kg/injection, schedule: Q01DX009 (ip), vehicle: saline) was 124 % of control.
In the case of `CCOC(=O)CC(C)(O)C1CC1` (stereo not given), the T/C [21] is reported as 96 % of control, the T/C (dose: 50.0 mg/kg/injection, schedule: Q01DX009 (ip), vehicle: Klucel (hydroxypropylcellulose) (HPC)) is reported as 101 % of control and the T/C (dose: 100.0 mg/kg/injection, schedule: Q01DX009 (ip), vehicle: Klucel (hydroxypropylcellulose) (HPC)) is reported as 105 % of control and 94 % of control. For the same compound, the T/C (dose: 200.0 mg/kg/injection, schedule: Q01DX009 (ip), vehicle: Klucel (hydroxypropylcellulose) (HPC)) was 103 % of control and 122 % of control.
With `O=Cc1ccccc1C=O` the T/C (dose: 100.0 mg/kg/injection, schedule: Q04DX002 (ip), vehicle: saline with Tween-80) was 98 % of control, the T/C (dose: 200.0 mg/kg/injection, schedule: Q04DX002 (ip), vehicle: saline with Tween-80) was 107 % of control and the T/C (dose: 400.0 mg/kg/injection, schedule: Q04DX002 (ip), vehicle: saline with Tween-80) was 102 % of control.

— PubChem BioAssay AID330 (DTP/NCI, 2004)
